Reference: BigSolDB 2.1

## CC1CCc2cc(F)cc3c(=O)c(C(=O)O)cn1c23 (stereo not given)
In ethanol, 301.9 K
  solubility (mole fraction): 0.00015
In ethanol, 309.9 K
  solubility (mole fraction): 0.00017
In ethanol, 315.2 K
  solubility (mole fraction): 0.00023
In ethanol, 320.7 K
  solubility (mole fraction): 0.00034
In ethanol, 328.7 K
  solubility (mole fraction): 0.00053
In ethanol, 331.7 K
  solubility (mole fraction): 0.00062
In ethanol, 335.5 K
  solubility (mole fraction): 0.00075
In ethanol, 339.1 K
  solubility (mole fraction): 0.00085
In ethanol, 340.5 K
  solubility (mole fraction): 0.00091
In ethanol, 342.1 K
  solubility (mole fraction): 0.00096
In ethanol, 344.2 K
  solubility (mole fraction): 0.00114
In ethanol, 345.5 K
  solubility (mole fraction): 0.0012
In water, 298.2 K
  solubility (mole fraction): 2.1e-05
In water, 303.2 K
  solubility (mole fraction): 2.3e-05
In water, 308.2 K
  solubility (mole fraction): 2.6e-05
In water, 313.2 K
  solubility (mole fraction): 2.8e-05
In water, 318.2 K
  solubility (mole fraction): 3.2e-05
In water, 323.2 K
  solubility (mole fraction): 3.8e-05

## CCn1cc(C(=O)O)c(=O)c2cc(F)c(N3CCNCC3)cc21
In water, 303.2 K
  solubility (mole fraction): 7.3e-06
In water, 308.2 K
  solubility (mole fraction): 9.1e-06
In water, 313.2 K
  solubility (mole fraction): 1.12e-05
In water, 318.2 K
  solubility (mole fraction): 1.37e-05
In water, 323.2 K
  solubility (mole fraction): 1.7e-05
In water, 328.2 K
  solubility (mole fraction): 2.05e-05

## CCn1nc(C(=O)O)c(=O)c2cc3c(cc21)OCO3
In ethanol, 300.2 K
  solubility (mole fraction): 5e-05
In ethanol, 303.1 K
  solubility (mole fraction): 6e-05
In ethanol, 311.4 K
  solubility (mole fraction): 8e-05
In ethanol, 315.1 K
  solubility (mole fraction): 0.0001
In ethanol, 319.5 K
  solubility (mole fraction): 0.00011
In ethanol, 321.6 K
  solubility (mole fraction): 0.00013
In ethanol, 325.6 K
  solubility (mole fraction): 0.00015
In ethanol, 329.1 K
  solubility (mole fraction): 0.00018
In ethanol, 334 K
  solubility (mole fraction): 0.0002
In ethanol, 337.2 K
  solubility (mole fraction): 0.00024
In ethanol, 339.8 K
  solubility (mole fraction): 0.00028
In ethanol, 342.8 K
  solubility (mole fraction): 0.00031
In ethanol, 345.6 K
  solubility (mole fraction): 0.00037
In water, 298.2 K
  solubility (mole fraction): 4.2e-06
In water, 303.2 K
  solubility (mole fraction): 5e-06
In water, 308.2 K
  solubility (mole fraction): 5.4e-06
In water, 313.2 K
  solubility (mole fraction): 5.9e-06
In water, 318.2 K
  solubility (mole fraction): 7.1e-06
In water, 323.2 K
  solubility (mole fraction): 9.9e-06

## CCn1cc(C(=O)O)c(=O)c2cc(F)c(N3CCNC(C)C3)c(F)c21.Cl (stereo not given)
In ethanol, 298.2 K
  solubility (mole fraction): 3e-05
In ethanol, 303.2 K
  solubility (mole fraction): 3.2e-05
In ethanol, 308.2 K
  solubility (mole fraction): 3.8e-05
In ethanol, 313.2 K
  solubility (mole fraction): 4.1e-05
In ethanol, 318.2 K
  solubility (mole fraction): 4.4e-05
In ethanol, 323.2 K
  solubility (mole fraction): 5e-05
In water, 296 K
  solubility (mole fraction): 0.00088
In water, 298.2 K
  solubility (mole fraction): 0.0009
In water, 311.7 K
  solubility (mole fraction): 0.00099
In water, 316.3 K
  solubility (mole fraction): 0.00104
In water, 318.9 K
  solubility (mole fraction): 0.0011
In water, 320.5 K
  solubility (mole fraction): 0.00112
In water, 328.3 K
  solubility (mole fraction): 0.00121
In water, 335.9 K
  solubility (mole fraction): 0.00129
In water, 338.7 K
  solubility (mole fraction): 0.00134
In water, 340.7 K
  solubility (mole fraction): 0.00138
In water, 344.2 K
  solubility (mole fraction): 0.00145
